Source: article PMC5216056 (Nature Communications, 2017)
“And” between values parts separate entries of the source, which are not always exact repeats. Equal entries are not always repeated. Where two headings read alike, the source gives them in different places.

Assays:
FAAH = target: T1, FAAH (Homo sapiens, UniProt O00519); experiment: FAAH activity, U937 cell homogenate; format: biochemical; conditions: for inhibition at 5 µM: read-out: FAAH % inhibition at 5 µM
T1 construct: host or cells: U937
T1 sequence (O00519 1-579): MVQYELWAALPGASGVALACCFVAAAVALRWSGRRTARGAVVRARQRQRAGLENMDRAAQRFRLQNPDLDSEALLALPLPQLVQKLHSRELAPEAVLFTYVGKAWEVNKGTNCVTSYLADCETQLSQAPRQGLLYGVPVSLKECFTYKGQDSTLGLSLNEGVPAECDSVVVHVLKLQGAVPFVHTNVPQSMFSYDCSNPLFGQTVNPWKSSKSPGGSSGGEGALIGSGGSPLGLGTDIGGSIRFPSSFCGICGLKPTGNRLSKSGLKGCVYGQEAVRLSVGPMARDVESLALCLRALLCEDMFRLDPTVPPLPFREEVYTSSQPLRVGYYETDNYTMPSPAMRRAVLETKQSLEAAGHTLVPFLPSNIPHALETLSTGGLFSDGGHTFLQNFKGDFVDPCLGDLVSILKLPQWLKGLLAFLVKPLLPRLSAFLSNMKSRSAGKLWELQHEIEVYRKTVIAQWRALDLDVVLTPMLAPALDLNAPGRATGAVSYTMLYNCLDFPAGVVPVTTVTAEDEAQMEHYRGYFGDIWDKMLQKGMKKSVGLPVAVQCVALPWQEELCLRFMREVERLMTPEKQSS
Procedure: FAAH activity was assessed using U937 cell homogenate (source: U937 cells were purchased from ATCC, Manassas, VA, USA). Tested compounds (at the concentrations of 1 and 5 μM) or solvent (≤1% of the final volume) were pre-incubated at 37 °C for 30 min with 100 μg of cell homogenate diluted in assay buffer (10 mM Tris-HCl and 1 mM EDTA, pH 7.6 and 1% w/v fatty acid-free BSA). Successively, a mixture of 99.5 nM […] of AEA and 0.5 nM of [ethanolamine-1-3H]-AEA (40–60 Ci mmol^−1) was added to the homogenate (final concentration of 100 nM) and incubated for 10 min at 37 °C under shaking. After the incubation time, 2 volumes of an ice-cold methanol: chloroform mixture 1:1 (v/v) were added to each sample, vigorously vortexed and centrifuged at 10,000g for 10 min at 4 °C to separate aqueous and organic phases. The aqueous phases were collected and the radioactivity associated with the hydrolysis product [3H]-ethanolamine was measured after addition of 3 ml of scintillation cocktail using the Tri-Carb 2100 TR scintillation counter. Data were collected from three independent experiments performed in triplicate and results were expressed as FAAH activity, relative to that in vehicle-treated samples (=100%).

alpha 2A (h) = target: T2, alpha 2A (h) (Homo sapiens, UniProt P08913); experiment: CEREP panel; format: binding; conditions: for inhibition at 10 µM: read-out: % inhibition alpha 2A (h)
T2 construct: CEREP
T2 sequence (P08913 1-465): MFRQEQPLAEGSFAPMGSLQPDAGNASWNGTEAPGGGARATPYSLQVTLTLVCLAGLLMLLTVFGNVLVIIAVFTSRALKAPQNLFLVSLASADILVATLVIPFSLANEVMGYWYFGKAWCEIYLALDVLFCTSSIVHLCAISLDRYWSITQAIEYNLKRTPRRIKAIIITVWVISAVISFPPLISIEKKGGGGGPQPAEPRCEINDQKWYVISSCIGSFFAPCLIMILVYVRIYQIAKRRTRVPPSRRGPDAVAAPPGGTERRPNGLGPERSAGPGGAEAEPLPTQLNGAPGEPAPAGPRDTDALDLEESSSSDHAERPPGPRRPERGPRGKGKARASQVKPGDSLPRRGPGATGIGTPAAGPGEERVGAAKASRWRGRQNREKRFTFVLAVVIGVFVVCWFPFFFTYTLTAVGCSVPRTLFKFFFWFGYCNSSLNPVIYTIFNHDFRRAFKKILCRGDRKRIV

mu (MOP) (h) = target: T3, mu (MOP) (h) (Homo sapiens, UniProt P35372); experiment: CEREP panel; format: binding; conditions: for inhibition at 10 µM: read-out: % inhibition mu (MOP) (h)
T3 construct: CEREP (contract assay)
T3 sequence (P35372 whole entry): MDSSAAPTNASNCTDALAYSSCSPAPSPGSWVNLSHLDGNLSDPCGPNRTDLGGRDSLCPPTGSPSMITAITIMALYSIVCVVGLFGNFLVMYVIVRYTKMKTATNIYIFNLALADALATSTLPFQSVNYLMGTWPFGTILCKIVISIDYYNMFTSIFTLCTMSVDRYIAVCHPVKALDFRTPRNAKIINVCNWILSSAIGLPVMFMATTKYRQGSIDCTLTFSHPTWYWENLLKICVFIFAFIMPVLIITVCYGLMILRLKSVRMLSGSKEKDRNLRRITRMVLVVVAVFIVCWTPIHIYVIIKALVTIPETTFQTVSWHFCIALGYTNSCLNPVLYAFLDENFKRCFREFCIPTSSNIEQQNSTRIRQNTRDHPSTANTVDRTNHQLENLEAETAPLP

N muscle-type (h) = target: T4, N muscle-type (h) (Homo sapiens, UniProt P02708+P07510+P11230+Q07001); experiment: CEREP panel; format: binding; conditions: for % inhibition N muscle-type (h): 10 µM
T4 construct: CEREP (contract assay)
T4 sequence (P02708 21-457): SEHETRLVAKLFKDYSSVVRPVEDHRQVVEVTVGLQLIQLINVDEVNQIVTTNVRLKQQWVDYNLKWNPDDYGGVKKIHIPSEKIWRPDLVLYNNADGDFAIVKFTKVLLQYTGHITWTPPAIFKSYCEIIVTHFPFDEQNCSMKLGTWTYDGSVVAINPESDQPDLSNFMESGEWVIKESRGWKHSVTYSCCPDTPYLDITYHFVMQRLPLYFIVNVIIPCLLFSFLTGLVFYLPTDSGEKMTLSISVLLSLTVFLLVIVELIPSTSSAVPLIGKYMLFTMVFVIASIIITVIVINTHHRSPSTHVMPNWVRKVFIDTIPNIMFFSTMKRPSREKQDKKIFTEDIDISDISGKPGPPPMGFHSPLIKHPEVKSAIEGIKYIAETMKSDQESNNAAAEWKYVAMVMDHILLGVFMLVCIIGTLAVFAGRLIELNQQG
T4 sequence (P11230 24-501): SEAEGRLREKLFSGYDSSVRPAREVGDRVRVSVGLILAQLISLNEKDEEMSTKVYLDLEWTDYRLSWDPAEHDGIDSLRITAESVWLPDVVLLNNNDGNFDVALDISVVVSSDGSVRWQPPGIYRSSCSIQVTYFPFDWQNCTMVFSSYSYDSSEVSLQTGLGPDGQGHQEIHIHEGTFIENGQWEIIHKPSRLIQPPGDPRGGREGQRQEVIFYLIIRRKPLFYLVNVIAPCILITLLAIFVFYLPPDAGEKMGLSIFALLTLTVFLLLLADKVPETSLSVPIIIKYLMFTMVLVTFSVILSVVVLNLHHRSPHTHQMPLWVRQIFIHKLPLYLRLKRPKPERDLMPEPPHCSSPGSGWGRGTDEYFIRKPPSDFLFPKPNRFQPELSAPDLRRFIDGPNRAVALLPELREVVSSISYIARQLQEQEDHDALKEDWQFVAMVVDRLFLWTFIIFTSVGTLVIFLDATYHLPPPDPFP
T4 sequence (Q07001 22-517): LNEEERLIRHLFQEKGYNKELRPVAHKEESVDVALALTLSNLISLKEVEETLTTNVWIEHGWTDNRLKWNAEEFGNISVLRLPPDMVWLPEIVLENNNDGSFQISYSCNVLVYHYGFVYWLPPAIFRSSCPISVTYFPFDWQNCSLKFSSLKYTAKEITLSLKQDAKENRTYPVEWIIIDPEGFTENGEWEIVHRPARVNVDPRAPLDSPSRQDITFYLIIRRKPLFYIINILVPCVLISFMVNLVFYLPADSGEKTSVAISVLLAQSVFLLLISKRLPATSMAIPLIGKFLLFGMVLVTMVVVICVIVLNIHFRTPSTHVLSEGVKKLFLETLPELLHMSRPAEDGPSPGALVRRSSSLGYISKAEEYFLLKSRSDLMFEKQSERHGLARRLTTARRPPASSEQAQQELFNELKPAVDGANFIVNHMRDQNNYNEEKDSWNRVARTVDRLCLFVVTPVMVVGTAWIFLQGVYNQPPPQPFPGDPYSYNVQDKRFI
T4 sequence (P07510 23-517): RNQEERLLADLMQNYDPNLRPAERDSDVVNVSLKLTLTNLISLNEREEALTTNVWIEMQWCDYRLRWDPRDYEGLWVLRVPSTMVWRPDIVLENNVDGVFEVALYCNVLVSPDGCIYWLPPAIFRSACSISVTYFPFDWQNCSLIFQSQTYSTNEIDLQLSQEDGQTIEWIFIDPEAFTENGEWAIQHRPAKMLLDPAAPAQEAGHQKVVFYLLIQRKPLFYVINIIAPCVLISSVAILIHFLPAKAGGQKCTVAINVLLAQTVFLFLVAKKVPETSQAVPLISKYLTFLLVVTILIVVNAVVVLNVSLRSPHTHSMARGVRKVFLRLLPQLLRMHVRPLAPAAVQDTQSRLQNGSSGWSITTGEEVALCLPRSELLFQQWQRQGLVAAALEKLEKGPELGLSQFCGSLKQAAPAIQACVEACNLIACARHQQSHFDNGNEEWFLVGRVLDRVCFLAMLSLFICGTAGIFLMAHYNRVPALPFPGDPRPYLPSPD

PPARgamma (h) = target: T5, PPARgamma (h) (Homo sapiens, UniProt P37231); experiment: CEREP panel; format: binding; conditions: for inhibition at 10 µM: read-out: % inhibition PPARgamma (h)
T5 construct: CEREP (contract assay)
T5 sequence (P37231 1-505): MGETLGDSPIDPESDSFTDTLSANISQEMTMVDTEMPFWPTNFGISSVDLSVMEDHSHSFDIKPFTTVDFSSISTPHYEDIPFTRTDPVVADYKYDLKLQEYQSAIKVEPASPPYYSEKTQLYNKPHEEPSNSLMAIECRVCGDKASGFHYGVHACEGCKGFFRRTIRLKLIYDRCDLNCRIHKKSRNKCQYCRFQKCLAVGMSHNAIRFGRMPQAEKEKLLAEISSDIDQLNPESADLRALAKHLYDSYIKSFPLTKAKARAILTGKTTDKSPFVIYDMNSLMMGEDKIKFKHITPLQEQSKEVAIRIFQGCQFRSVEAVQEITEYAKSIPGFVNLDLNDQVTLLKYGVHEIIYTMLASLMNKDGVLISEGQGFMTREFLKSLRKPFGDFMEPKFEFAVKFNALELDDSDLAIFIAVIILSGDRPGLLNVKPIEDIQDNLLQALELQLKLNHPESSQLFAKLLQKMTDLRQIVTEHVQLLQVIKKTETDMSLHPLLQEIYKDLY

[1] = system: AEA reuptake in HaCaT cells; experiment: cells; format: cell-based, human; conditions: for IC50: read-out: AEA reuptake IC50 (95% CI) HaCaT cells; for AEA reuptake Efficacy (% inhibition) HaCaT cells: from dose-response; for AEA reuptake % inhibition, effect at 10 µM, HaCaT cells / inhibition at 10 µM: 10 µM (values marked *); for inhibition at 10 µM: read-out: AEA reuptake % inhibition, effect at 10 µM, HaCaT cells
[2] = logD distribution coefficient
mCB2R = mCB2R (Mus musculus, UniProt P47936); experiment: biochemical; format: biochemical; design: from tissue; host or cells: spleen of male C57BL/6J mice; conditions: for Emax: read-out: Emax cAMP mCB2R; for CB2R Selectivity cAMP (mouse): 10^(pEC50 CB2R-pEC50 CB1R)
Chain of mCB2R (P47936 whole entry): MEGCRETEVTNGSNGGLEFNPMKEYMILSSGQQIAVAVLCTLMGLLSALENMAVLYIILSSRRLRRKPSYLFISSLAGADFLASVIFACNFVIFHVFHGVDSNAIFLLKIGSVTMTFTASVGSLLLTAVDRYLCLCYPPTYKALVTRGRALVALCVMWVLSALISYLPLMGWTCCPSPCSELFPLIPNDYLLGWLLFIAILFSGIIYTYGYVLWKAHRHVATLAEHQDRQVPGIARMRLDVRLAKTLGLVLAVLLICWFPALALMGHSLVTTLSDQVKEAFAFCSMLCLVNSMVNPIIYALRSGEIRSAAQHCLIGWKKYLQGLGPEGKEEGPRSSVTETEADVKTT

[3] = 1 μM
[4] = mouse spleen, read-out: pEC50 ± SEM cAMP mCB2R (converted)

Molecule | FAAH % inhibition at 5 µM (FAAH; 5 µM, U937 cell homogenate) | % inhibition alpha 2A (h) (alpha 2A (h); 10 µM) [%] | % inhibition mu (MOP) (h) (mu (MOP) (h); 10 µM) [%] | % inhibition N muscle-type (h) (N muscle-type (h)) [%] | % inhibition PPARgamma (h) (PPARgamma (h); 10 µM) [%] | AEA reuptake Efficacy (% inhibition) HaCaT cells [1] [%] | IC50 [1] [µM] | CL microsomes mouse [3] [µL/min/mg protein] | pEC50 ± SEM cAMP mCB2R (mCB2R; mouse spleen) | AEA reuptake % inhibition, effect at 10 µM, HaCaT cells [1] [%] | logD ([2]; distribution coefficient) | Emax cAMP mCB2R (mCB2R) | further results
Cc1c(C(=O)NN2CCCCC2)nn(-c2ccc(Cl)cc2Cl)c1-c1ccc(I)cc1 [AM251] | < 50% and 30–40% | 30 | 93 | 12 | 55 | – | – | – | – | – | – | – | –
CCCCCCC(C)(C)c1cc(OC)c([C@@H]2C=C(CO)[C@@H]3C[C@H]2C3(C)C)c(OC)c1 [HU308] | – | – | – | – | – | 69 | – | – | – | – | – | – | inhibition at 5 µM (FAAH): < 25%; IC50 ([1]; Homo sapiens, HaCaT): 2.21 µM; inhibition at 10 µM (alpha 2A (h)): -6%; inhibition at 10 µM (mu (MOP) (h)): 7%; inhibition at 10 µM (PPARgamma (h)): 14%; logD [2]: 4.29; EC50 (mCB2R): 3.72 nM; Emax (mCB2R): 56%
Cc1ccc2c(c1)Cc1c(C(=O)NN3CCCCC3)nn(-c3ccc(Cl)cc3Cl)c1-2 [Gp-1a] | < 50% and 30–40% | 30 | 102 | – | 86 | 90 | 3.27 | 134 | 7.25 ± 0.32 | – | – | – | CB2R Selectivity cAMP (mouse) (mCB2R): 25 fold; Emax cAMP mCB2R (mCB2R; normalized to 10 µM CP55940): -25%
SR144528 | – | -5 | 11 | -3 | 31 | – | > 10 | – | – | 20 | – | – | Emax cAMP mCB2R (mCB2R; normalized to 10 µM CP55940): -100%
CCCn1c(C)c(C(=O)c2cccc3ccccc23)c2ccccc21 [JWH015] | – | 1 | 7 | -12 | 67 | – | > 5 | 989 | 7.64 ± 0.24 | 64 | – | – | Emax cAMP mCB2R (mCB2R; normalized to 10 µM CP55940): 93%
CCCCC/C=C\C/C=C\C/C=C\C/C=C\CCCC(=O)OC(CO)CO [2-AG, 2-arachidonoyl glycerol] | – | – | – | – | – | – | – | – | – | – | – | – | inhibition at 10 µM ([1]; Homo sapiens, HaCaT): 60%; IC50 ([1]; Homo sapiens, HaCaT): > 5 µM; EC50 (mCB2R; [4]): 70.8 nM; Emax (mCB2R): 53%
CN1CCCC[C@H]1Cn1cc(C(=O)c2cc([N+](=O)[O-])ccc2I)c2ccccc21 [(S)-AM1241] | < 25% | 10 | 46 | 38 | 23 | 90 | 4.49 | 640 | 7.6 ± 0.3 | – | 3.64 | 35 | CB2R Selectivity cAMP (mouse) (mCB2R): 148 fold
CN1CCCC[C@@H]1Cn1cc(C(=O)c2cc([N+](=O)[O-])ccc2I)c2ccccc21 [(R)-AM1241] | < 25% | – | – | – | – | – | > 5 | 314 | 6.17 ± 0.23 | 25 | 3.66 | -22 | CB2R Selectivity cAMP (mouse) (mCB2R): 12 fold
CCCC(C)(C)c1ccc2c(c1)OC(C)(C)[C@@H]1CC=C(C)C[C@@H]21 [JWH133] | – | -18 | 7 | – | -5 | – | > 10 | 63 | 7.75 ± 0.33 | 39 | > 3 | 95 | –
Cc1c(C(=O)NN2CCCCC2)nn(-c2ccc(Cl)cc2Cl)c1-c1ccc(Cl)cc1 [SR141716A] | – | – | – | – | – | 80 | – | – | – | – | – | – | inhibition at 5 µM (FAAH; 5 µM, U937 cell homogenate): < 25%
CCCCC/C=C\C/C=C\C/C=C\C/C=C\CCCC(=O)NCCO [Anandamide, N-arachidonoylethanolamine] | – | – | – | – | – | 86 | – | – | – | – | – | – | IC50 ([1]; Homo sapiens, HaCaT): 0.27 µM; EC50 (mCB2R): 151 nM; Emax (mCB2R): 48%
CN1CCCCC1Cn1cc(C(=O)c2cc([N+](=O)[O-])ccc2I)c2ccccc21 (racemic) [(rac)-AM1241] | – | – | – | – | – | 80 | 4.01 | 254 | 7.03 ± 0.26 | – | 3.66±0.03 | -6 | –
CCCCCCC(C)(C)c1cc(OC)c(C2=C[C@H]3CC[C@]2(CO)C3(C)C)c(OC)c1 [HU910] | < 25% | 7 | 23 | – | 17 | – | > 10 | 464 | 8.98 ± 0.38 | 38 | – | – | Emax cAMP mCB2R (mCB2R; normalized to 10 µM CP55940): 67%
CCCCCCC(C)(C)c1ccc([C@@H]2C[C@H](O)CC[C@H]2CCCO)c(O)c1 [CP55940] | – | – | – | – | – | – | – | – | – | – | – | – | inhibition at 10 µM ([1]; Homo sapiens, HaCaT): 13%; IC50 ([1]; Homo sapiens, HaCaT): > 10 µM; inhibition at 10 µM (alpha 2A (h); 10 µM): 23%; inhibition at 10 µM (mu (MOP) (h); 10 µM): 57%; inhibition at 10 µM (N muscle-type (h)): -4%; inhibition at 10 µM (PPARgamma (h); 10 µM): 85%; EC50 (mCB2R; [4]): 0.0676 nM; Emax (mCB2R): 100%
COc1ccc(C(=O)c2c(C)n(CCN3CCOCC3)c3cc(I)ccc23)cc1 [AM630] | – | -5 | 21 | 5 | 99 | 65 | 4.18 | 468 | 7.93 ± 0.3 | – | 3.82 | -65 | –
